Test results reported in patent US20210030022A1, “NOVEL USE OF SUBSTITUTED CHROMAN-6-OLS” (DSM IP ASSETS B.V., priority 2018, published 2021).
Entries after “also recorded” stand apart in the source; their conditions may differ.

Columns and labels:
[1] = Oxipres antioxidant efficacy value (EV) in poultry meal; settings: Oxipres 70° C., 5 bar O2, equimolar to BHT; EV relative to BHT (EV=1)
Method: (§1) Oxidative stability was assessed using an Oxipres (Mikrolab Aarhus A/S, Hojbjerg, Denmark). The ML OXIPRES® is designed to monitor the oxidation of heterogeneous products. Consumption of oxygen results in a pressure drop which is measured by means of pressure transducers. The samples are heated to accelerate the process and shorten the analysis time (Mikrolab Aarhus 2012).
(§2) Sample weights were 50 g. They were loaded into the Oxipres vessels and placed inside the stainless-steel pressure vessel and sealed. The pressure vessels were purged with pure oxygen and filled to an initial oxygen pressure of 5 bar and maintained at 70° C. during measurement (D. Ying, L. Edin, L. Cheng, L. Sanguansri, M. A. Augustin, LWT—Food Science and Technology 2015, 62, 1105-1111: “Enhanced oxidative stability of extruded product containing polyunsaturated oils.”).
(§3) The oxygen pressure was recorded as function of time. After sample load and temperature rise the pressure in the device is increasing within 10 hours up to the starting pressure. Thereafter it is decreasing. Consequently, the starting pressure is considered as being the pressure after 10 hours. The analysis ends after 130 hours at 70° C. The oxygen consumption ‘O2’ of the tested sample is calculated as follows: […]
(§4) A factor of protection called ‘EV’ (Efficacy Value) was developed to quantify with a relative number (relative to BHT) the antioxidant effect of the tested candidates. EV was calculated as follows:
(§5) EV, being relative to BHT (3,5-di-tert-butyl-4-hydroxy-toluene) (EV=1), makes it possible to compare the antioxidant compounds in a defined feed application.
(§6) Each of the compounds of formulae (1) to (6) were mixed into each matrix 1, 2 or 3 (pet food, poultry meal, fish meal) in an equimolar ratio compared to BHT. Batches of 200 g feed were produced in order to handle a minimum of 30 mg of antioxidant. First, a 1% pre-dilution of the antioxidant with the feed material was made. Then this pre-dilution was added to the final batch, mixed, sieved (1.25 mm sieve) and mixed using a turbula mixer. Thereafter 55 g of the final batch were packed into polyethylene bags, and stored at 4° C. until start of the Oxipres assay. Spare sample were stored at 4° C. Compound of formula (3) was measured in all three matrices. Compound of formula (1) was measured in matrix 1 and 2. Compound of formula (2) was measured in matrix 2. Compounds of formulae (4), (5) and (6) were measured in matrix 3. An efficacy value 0.7 has been considered as acceptable, an efficacy value ≥ the efficacy value of alpha-tocopherol as good, and an efficacy value ≥ the efficacy value of BHT as very good.

[2] = Oxipres antioxidant efficacy value (EV) in pet food; settings: Oxipres 70° C., 5 bar O2, equimolar to BHT; EV relative to BHT (EV=1)
Method: as §1, §2, §3, §4, §5, §6

[3] = Oxipres antioxidant efficacy value (EV) in fish meal; settings: Oxipres 70° C., 5 bar O2, equimolar to BHT; EV relative to BHT (EV=1)
Method: as §1, §2, §3, §4, §5, §6

[4] = Oil Stability Index (OSI) in fish oil, Example 12; settings: for OSI: Table 15, 80° C.; for OSI / Protection Factor (%): FG30TG fish oil; for Protection Factor (%): Table 18
Method: The compounds of formulae (4), (6), (8) and (9) were evaluated primarily for their oxidative stability by the Oil Stability Index (OSI) measurements. Two different levels of these antioxidants (0.5 and 2 mg/g) were used in 5 g of natural fish oil (Product code: FG30TG) and used in the Oxidative Stability Instrument at 80° C. with the air flow rate of 40 psi. The solubility of different amounts and types of antioxidants used in OSI was checked before and after the application.
The compounds of formulae (6) and (9) (see Table 14 below), compound of formula (4) (see Table 15 below) and compound of formula (8) (see Table 16 below) were used at different times in the Oxidative Stability instruments under similar operational conditions used for fish oil evaluations. MNT and the oil without any antioxidants (“Blank”) were always used to compare. Also, the synergistic effect of only oil soluble compounds with ascorbyl palmitate was determined using the OSI values. The polymers generated at the end of the experiment were determined by LC (LC=liquid chromatography).
The Protection Factors (PF) for each compound in oil were calculated in percentage as: […]

[5] = Solubility in fish oil; format: physicochemical; settings: fish oil, 0.5 and 2 mg/g; mixed around 40° C. to dissolve completely
Method: The compounds of formulae (4), (6), (8) and (9) were evaluated primarily for their oxidative stability by the Oil Stability Index (OSI) measurements. Two different levels of these antioxidants (0.5 and 2 mg/g) were used in 5 g of natural fish oil (Product code: FG30TG) and used in the Oxidative Stability Instrument at 80° C. with the air flow rate of 40 psi. The solubility of different amounts and types of antioxidants used in OSI was checked before and after the application. […]

[6] = Oil Stability Index (OSI) in fish oil, Example 13; settings: for OSI: Table 28, FG30TG fish oil, 80° C.; for Protection Factor (%): Table 34, fish oil (80° C.)
Method: The compounds of formulae (3) and (7) were used in both fish and algal oils to see their antioxidant effect in these oils. Antioxidant effect was determined using mainly the Oil Stability Index (OSI). Two concentration levels were used: 0.5 mg/g (low level) and 2 mg/g (high level), respectively, have been added to 5 g of oil and used in the Oxidative Stability Instrument operated at 80° C. with the continuous air flow rate at ˜40 psi. All samples were run in duplicate. The Protection Factors (PF) for each compound, as percentage, in oil were calculated as, [formula]

[7] = Storage stability in fish oil (PV, p-AV), Example 13; settings: for Peroxide values (PV, meq/kg) / p-Anisidine value (p-AV): storage at 25° C.
Method: A storage stability study was performed to compare the variation of primary oxidation products, the hydroperoxides, generated during oxidation, measured in terms of peroxide value (PV) and the secondary oxidation products which were measured and determined as anisidine reactive substances or p-anisidine value (p-AV) of oil samples containing these compounds.
The two different concentrations of compounds of formulae (3) and (7) were used for the storage stability study. Each compound and MNT were added, each individually, to 40 g of fish oil samples in 60 ml amber bottles at 0.5 mg/g and 2 mg/g levels, thoroughly mixed and stored at ambient temperature for 19 days. All sample bottles were stored open to air, away from light. […] Peroxide values (PV) and p-anisidine values (p-AV) were determined at different times for 19 days.

[8] = Oil Stability Index (OSI) in crude algal oil, Example 13; settings: for OSI: Table 33, crude algal oil (contained about 1.6 mg/g MNT prior to use), 80° C.; for Protection Factor (%): Table 35, crude algal oil (80° C.)
Method: The compounds of formulae (3) and (7) were used in both fish and algal oils to see their antioxidant effect in these oils. Antioxidant effect was determined using mainly the Oil Stability Index (OSI).
Two concentration levels were used: 0.5 mg/g (low level) and 2 mg/g (high level), respectively, have been added to 5 g of oil and used in the Oxidative Stability Instrument operated at 80° C. with the continuous air flow rate at ˜40 psi. All samples were run in duplicate. The Protection Factors (PF) for each compound, as percentage, in oil were calculated as,
The Oil Stability Indices (OSI) of crude algal oil with levels of 0.5 mg/g and 2 mg/g of compounds of formulae (3) or (7) are shown in Table 33.

For `Oc1ccc2c(c1)CCCO2` [Compound of formula (1), chroman-6-ol], which “EV in poultry meal” value [1] is on record?
The value was 1.12.

What about the “EV in pet food” value [2] of the same molecule?
The value was 0.98.

With `CC1CCc2cc(O)ccc2O1` (stereo not drawn) [Compound of formula (2), 2-methyl-chroman-6-ol] as the molecule, how does the “EV in poultry meal” value [1] read?
Its value is 1.09.

Which “EV in poultry meal” value [1] does the source give for `Cc1c(C)c2c(c(C)c1O)CC[C@@](C)(CCC[C@H](C)CCC[C@H](C)CCCC(C)C)O2` [alpha-tocopherol, reference compound] here?
The value was 0.74.

What about the “EV in Fish meal” value [3] of the same molecule?
Its value is 0.88.

What about the “EV in pet food” value [2] of the same molecule?
Its value is 0.77.

Which results are given for `COc1cc2c(cc1O)CCC(C)(C)O2` [Compound of formula (4), 7-Methoxy-2,2-Dimethyl-6-Chromanol]?
EV in Fish meal [3]: 1.05; OSI ([4]; 0.5 mg/g): 4.98 h; OSI ([4]; 2 mg/g): 5.95 h; Protection Factor (%) ([4]; 0.5 mg/g): 4.74%; Protection Factor (%) ([4]; 2 mg/g): 25.26%; antioxidant effect (OSI) in fish oil compared with MNT ([4]; fish oil, Example 12, same level of MNT): lower OSI values than those of MNT

For `Cc1c(C)c2c(c(C)c1O)CCC(C)(C)O2` [Compound of formula (5), 2,2,5,7,8-pentamethyl-chroman-6-ol], which “EV in Fish meal” value [3] is on record?
Its value is 1.08.

Which “EV in poultry meal” value [1] does the source give for `Cc1cc(C(C)(C)C)c(O)c(C(C)(C)C)c1` [BHT, 3,5-di-tert-butyl-4-hydroxy-toluene, reference compound] here?
Its value is 1.

What about the “EV in Fish meal” value [3] of the same molecule?
The value was 1.

What about the “EV in pet food” value [2] of the same molecule?
The value was 1.

With `CC1(C)CCc2cc(O)ccc2O1` [Compound of formula (3), 2,2-dimethyl-chroman-6-ol] as the molecule, how does the Solubility in oil [5] read?
Its Solubility in oil is “not readily soluble in oil”.

What about the “OSI” value ([6]; 0.5 mg/g) of the same molecule?
The value was 7.13 h.

And the “OSI” value ([6]; 2 mg/g)?
Its value is 7.48 h.

And the “Protection Factor (%)” value ([6]; 0.5 mg/g)?
The value was 42.5%.

What about the “Protection Factor (%)” value ([6]; 2 mg/g) of the same molecule?
The value was 49.5%.

And the “antioxidant activity (OSI) in fish oil compared with MNT” value ([6]; fish oil, Example 13, 0.5 and 2 mg/g)?
Its value is “slightly higher Oil Stability Indices than those of MNT; also recorded: comparable in activity with MNT”.

What about the “EV in poultry meal” value [1] of the same molecule?
Its value is 1.17.

What about the “EV in Fish meal” value [3] of the same molecule?
The value was 0.96.

What about the “EV in pet food” value [2] of the same molecule?
Its value is 0.95.

What about the “level of secondary oxidation products (p-AV) during storage” value ([7]; 0.5 mg/g concentration) of the same molecule?
Its value is “lowest level of secondary oxidation products (p-AV)”.

What about the “Peroxide values (PV, meq/kg)” value ([7]; 0.5 mg/g level, 1 day) of the same molecule?
The value was 1 meq/kg.

And the “p-Anisidine value (p-AV)” value ([7]; 0.5 mg/g level, 1 day)?
The value was 9.5.

And the “Peroxide values (PV, meq/kg)” value ([7]; 0.5 mg/g level, 5 days)?
Its value is 2 meq/kg.

And the “p-Anisidine value (p-AV)” value ([7]; 0.5 mg/g level, 5 days)?
Its value is 9.5.

What about the “Peroxide values (PV, meq/kg)” value ([7]; 0.5 mg/g level, 8 days) of the same molecule?
The value was 6.4 meq/kg.

And the “p-Anisidine value (p-AV)” value ([7]; 0.5 mg/g level, 8 days)?
The value was 11.2.

What about the “Peroxide values (PV, meq/kg)” value ([7]; 0.5 mg/g level, 14 days) of the same molecule?
Its value is 12.8 meq/kg.

And the “p-Anisidine value (p-AV)” value ([7]; 0.5 mg/g level, 14 days)?
The value was 11.4.

And the “Peroxide values (PV, meq/kg)” value ([7]; 0.5 mg/g level, 19 days)?
The value was 20.9 meq/kg.

And the “p-Anisidine value (p-AV)” value ([7]; 0.5 mg/g level, 19 days)?
Its value is 12.8.

And the “Peroxide values (PV, meq/kg)” value ([7]; 0.5 mg/g level, Initial)?
The value was 1 meq/kg.

And the “p-Anisidine value (p-AV)” value ([7]; 0.5 mg/g level, Initial)?
The value was 9.4.

What about the “Peroxide values (PV, meq/kg)” value ([7]; 2 mg/g level, 1 day) of the same molecule?
Its value is 1 meq/kg.

What about the “p-Anisidine value (p-AV)” value ([7]; 2 mg/g level, 1 day) of the same molecule?
The value was 9.4.

What about the “Peroxide values (PV, meq/kg)” value ([7]; 2 mg/g level, 5 days) of the same molecule?
Its value is 1.9 meq/kg.

And the “p-Anisidine value (p-AV)” value ([7]; 2 mg/g level, 5 days)?
The value was 9.3.

What about the “Peroxide values (PV, meq/kg)” value ([7]; 2 mg/g level, 8 days) of the same molecule?
The value was 6.4 meq/kg.

What about the “p-Anisidine value (p-AV)” value ([7]; 2 mg/g level, 8 days) of the same molecule?
The value was 10.8.

What about the “Peroxide values (PV, meq/kg)” value ([7]; 2 mg/g level, 14 days) of the same molecule?
The value was 14.1 meq/kg.

And the “p-Anisidine value (p-AV)” value ([7]; 2 mg/g level, 14 days)?
The value was 11.2.

What about the “Peroxide values (PV, meq/kg)” value ([7]; 2 mg/g level, 19 days) of the same molecule?
The value was 26.8 meq/kg.

And the “p-Anisidine value (p-AV)” value ([7]; 2 mg/g level, 19 days)?
Its value is 11.8.

And the “Peroxide values (PV, meq/kg)” value ([7]; 2 mg/g level, Initial)?
Its value is 1 meq/kg.

And the “p-Anisidine value (p-AV)” value ([7]; 2 mg/g level, Initial)?
Its value is 9.4.

What about the “OSI” value ([8]; 0.5 mg/g) of the same molecule?
Its value is 17.05 h.

And the “OSI” value ([8]; 2 mg/g)?
Its value is 18.63 h.

And the “Protection Factor (%)” value ([8]; 0.5 mg/g)?
The value was 13.7%.

What about the “Protection Factor (%)” value ([8]; 2 mg/g) of the same molecule?
Its value is 24.2%.
